# Test system: yeast genes (expressed mRNA)
# Assay: DNA chip measurement of expressed mRNA of yeast genes after culture with a toxic chemical substance
# Format: cell-based, Saccharomyces cerevisiae S288C
# Settings: for level of expressed mRNA in the presence of chemical substance / level in the absence of chemical substance: cultured two hours with the chemical substance; for The level of expressed mRNA in the presence of chemical substance/The level of expressed mRNA in the absence of chemical substance: cultured two hours with substance
# How it was run: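 Two-hour exposure of growing S. cerevisiae S288C (YPD, 25° C) to a sublethal toxicant preceded RNA isolation. Fluorescent cDNA was hybridized to a whole-genome array; a treated-to-untreated signal ratio of two or more was taken as significant.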
substance,measurement,setting,value
Na2As [(1)],"The level of expressed mRNA in the presence of chemical substance/The level of expressed mRNA in the absence of chemical substance, yeast gene YBR036C","gene YBR036C, Metabolism protein genes, DNA chip fluorescence ratio",0.8
same,"The level of expressed mRNA in the presence of chemical substance/The level of expressed mRNA in the absence of chemical substance, yeast gene YBR298C","gene YBR298C, Metabolism protein genes, DNA chip fluorescence ratio",1.1
same,"The level of expressed mRNA in the presence of chemical substance/The level of expressed mRNA in the absence of chemical substance, yeast gene YDL067C","gene YDL067C (mitochondria-located protein gene), yeast cultured two hours with chemical substance, DNA chip fluorescence ratio to control",1.8
same,"The level of expressed mRNA in the presence of chemical substance/The level of expressed mRNA in the absence of chemical substance, yeast gene YDL078C","gene YDL078C, Metabolism protein genes, DNA chip fluorescence ratio",0.7
same,"The level of expressed mRNA in the presence of chemical substance/The level of expressed mRNA in the absence of chemical substance, yeast gene YDL215C","gene YDL215C, Metabolism protein genes, DNA chip fluorescence ratio",1.0
same,"The level of expressed mRNA in the presence of chemical substance/The level of expressed mRNA in the absence of chemical substance, yeast gene YDR079W","gene YDR079W (mitochondria-located protein gene), yeast cultured two hours with chemical substance, DNA chip fluorescence ratio to control",1.3
same,"The level of expressed mRNA in the presence of chemical substance/The level of expressed mRNA in the absence of chemical substance, yeast gene YDR297W","gene YDR297W, Metabolism protein genes, DNA chip fluorescence ratio",1.5
same,"The level of expressed mRNA in the presence of chemical substance/The level of expressed mRNA in the absence of chemical substance, yeast gene YDR387C","gene YDR387C, Metabolism protein genes, DNA chip fluorescence ratio",0.8
same,"The level of expressed mRNA in the presence of chemical substance/The level of expressed mRNA in the absence of chemical substance, yeast gene YGL035C","gene YGL035C, Metabolism protein genes, DNA chip fluorescence ratio",0.7
same,"The level of expressed mRNA in the presence of chemical substance/The level of expressed mRNA in the absence of chemical substance, yeast gene YGR062C","gene YGR062C (mitochondria-located protein gene), yeast cultured two hours with chemical substance, DNA chip fluorescence ratio to control",0.9
same,"The level of expressed mRNA in the presence of chemical substance/The level of expressed mRNA in the absence of chemical substance, yeast gene YGR287C","gene YGR287C, Metabolism protein genes, DNA chip fluorescence ratio",1.3
same,"The level of expressed mRNA in the presence of chemical substance/The level of expressed mRNA in the absence of chemical substance, yeast gene YJL070C","gene YJL070C, Metabolism protein genes, DNA chip fluorescence ratio",1.3
same,"The level of expressed mRNA in the presence of chemical substance/The level of expressed mRNA in the absence of chemical substance, yeast gene YJL096W","gene YJL096W (mitochondria-located protein gene), yeast cultured two hours with chemical substance, DNA chip fluorescence ratio to control",1.0
same,"The level of expressed mRNA in the presence of chemical substance/The level of expressed mRNA in the absence of chemical substance, yeast gene YJL180C","gene YJL180C (mitochondria-located protein gene), yeast cultured two hours with chemical substance, DNA chip fluorescence ratio to control",0.9
same,"The level of expressed mRNA in the presence of chemical substance/The level of expressed mRNA in the absence of chemical substance, yeast gene YKR009C","gene YKR009C, Metabolism protein genes, DNA chip fluorescence ratio",1.0
same,"The level of expressed mRNA in the presence of chemical substance/The level of expressed mRNA in the absence of chemical substance, yeast gene YLR295C","gene YLR295C (mitochondria-located protein gene), yeast cultured two hours with chemical substance, DNA chip fluorescence ratio to control",1.4
same,"The level of expressed mRNA in the presence of chemical substance/The level of expressed mRNA in the absence of chemical substance, yeast gene YLR351C","gene YLR351C, Metabolism protein genes, DNA chip fluorescence ratio",1.0
same,"The level of expressed mRNA in the presence of chemical substance/The level of expressed mRNA in the absence of chemical substance, yeast gene YLR375W","gene YLR375W, Metabolism protein genes, DNA chip fluorescence ratio",0.9
same,"The level of expressed mRNA in the presence of chemical substance/The level of expressed mRNA in the absence of chemical substance, yeast gene YMR023C","gene YMR023C (mitochondria-located protein gene), yeast cultured two hours with chemical substance, DNA chip fluorescence ratio to control",1.4
same,"The level of expressed mRNA in the presence of chemical substance/The level of expressed mRNA in the absence of chemical substance, yeast gene YMR267W","gene YMR267W (mitochondria-located protein gene), yeast cultured two hours with chemical substance, DNA chip fluorescence ratio to control",0.8
same,"The level of expressed mRNA in the presence of chemical substance/The level of expressed mRNA in the absence of chemical substance, yeast gene YMR267W","gene YMR267W, Metabolism protein genes, DNA chip fluorescence ratio",0.8
same,"The level of expressed mRNA in the presence of chemical substance/The level of expressed mRNA in the absence of chemical substance, yeast gene YMR278W","gene YMR278W, Metabolism protein genes, DNA chip fluorescence ratio",0.7
same,"The level of expressed mRNA in the presence of chemical substance/The level of expressed mRNA in the absence of chemical substance, yeast gene YMR293C","gene YMR293C, Metabolism protein genes, DNA chip fluorescence ratio",0.9
same,"The level of expressed mRNA in the presence of chemical substance/The level of expressed mRNA in the absence of chemical substance, yeast gene YNL073W","gene YNL073W (mitochondria-located protein gene), yeast cultured two hours with chemical substance, DNA chip fluorescence ratio to control",0.8
same,"The level of expressed mRNA in the presence of chemical substance/The level of expressed mRNA in the absence of chemical substance, yeast gene YNR072W","gene YNR072W, Metabolism protein genes, DNA chip fluorescence ratio",1.1
same,"The level of expressed mRNA in the presence of chemical substance/The level of expressed mRNA in the absence of chemical substance, yeast gene YOL096C","gene YOL096C, Metabolism protein genes, DNA chip fluorescence ratio",1.1
same,"The level of expressed mRNA in the presence of chemical substance/The level of expressed mRNA in the absence of chemical substance, yeast gene YOR180C","gene YOR180C, Metabolism protein genes, DNA chip fluorescence ratio",0.8
same,"The level of expressed mRNA in the presence of chemical substance/The level of expressed mRNA in the absence of chemical substance, yeast gene YOR316C","gene YOR316C (mitochondria-located protein gene), yeast cultured two hours with chemical substance, DNA chip fluorescence ratio to control",0.7
same,"The level of expressed mRNA in the presence of chemical substance/The level of expressed mRNA in the absence of chemical substance, yeast gene YOR363C","gene YOR363C, Metabolism protein genes, DNA chip fluorescence ratio",0.8
same,"The level of expressed mRNA in the presence of chemical substance/The level of expressed mRNA in the absence of chemical substance, yeast gene YPL040C","gene YPL040C (mitochondria-located protein gene), yeast cultured two hours with chemical substance, DNA chip fluorescence ratio to control",1.1
same,"The level of expressed mRNA in the presence of chemical substance/The level of expressed mRNA in the absence of chemical substance, yeast gene YPL134C","gene YPL134C (mitochondria-located protein gene), yeast cultured two hours with chemical substance, DNA chip fluorescence ratio to control",1.5
same,"The level of expressed mRNA in the presence of chemical substance/The level of expressed mRNA in the absence of chemical substance, yeast gene YPR184W","gene YPR184W, Metabolism protein genes, DNA chip fluorescence ratio",1.2
same,level of expressed mRNA in the presence of chemical substance / level in the absence of chemical substance,yeast gene YAL018C,2.0
same,The level of expressed mRNA in the presence of chemical substance/The level of expressed mRNA in the absence of chemical substance,yeast gene YAL053W,0.9
same,level of expressed mRNA in the presence of chemical substance / level in the absence of chemical substance,yeast gene YAR047C,1.1
same,level of expressed mRNA in the presence of chemical substance / level in the absence of chemical substance,yeast gene YAR064W,2.1
same,level of expressed mRNA in the presence of chemical substance / level in the absence of chemical substance,yeast gene YBL044W,0.9
same,The level of expressed mRNA in the presence of chemical substance/The level of expressed mRNA in the absence of chemical substance,yeast gene YBL048W,2.0
same,The level of expressed mRNA in the presence of chemical substance/The level of expressed mRNA in the absence of chemical substance,yeast gene YBL107C,1.4
same,level of expressed mRNA in the presence of chemical substance / level in the absence of chemical substance,yeast gene YBR012C,2.5
same,level of expressed mRNA in the presence of chemical substance / level in the absence of chemical substance,yeast gene YBR066C,1.9
same,level of expressed mRNA in the presence of chemical substance / level in the absence of chemical substance,yeast gene YBR124W,0.9
same,level of expressed mRNA in the presence of chemical substance / level in the absence of chemical substance,yeast gene YBR162C,0.6
same,level of expressed mRNA in the presence of chemical substance / level in the absence of chemical substance,yeast gene YBR287W,1.7
same,level of expressed mRNA in the presence of chemical substance / level in the absence of chemical substance,yeast gene YCL056C,1.3
same,level of expressed mRNA in the presence of chemical substance / level in the absence of chemical substance,yeast gene YCR007C,2.2
same,level of expressed mRNA in the presence of chemical substance / level in the absence of chemical substance,yeast gene YDL046W,1.2
same,The level of expressed mRNA in the presence of chemical substance/The level of expressed mRNA in the absence of chemical substance,yeast gene YDL072C,1.3
same,The level of expressed mRNA in the presence of chemical substance/The level of expressed mRNA in the absence of chemical substance,yeast gene YDL204W,1.4
same,The level of expressed mRNA in the presence of chemical substance/The level of expressed mRNA in the absence of chemical substance,yeast gene YDL222C,0.9
same,level of expressed mRNA in the presence of chemical substance / level in the absence of chemical substance,yeast gene YDR090C,0.9
same,level of expressed mRNA in the presence of chemical substance / level in the absence of chemical substance,yeast gene YDR128W,0.6

# Reference: patent US20100041089A1, “IMPROVED METHOD FOR DETECTING CHEMICAL […]” (priority 2006, published 2010)
